Reference: patent US5569598A (Lucky Limited Co., priority 1993, dated 1996)
Residues, ends and D or L forms follow the SMILES beside them. *: point of attachment. pNA = O=[N+]([O-])c1ccc(N*)cc1

Experiments:
[1] = test system: aminopeptidase; test: Substrate specificity of the aminopeptidase (paranitroanilide substrates); assay type: biochemical, Streptomyces thermonitrificans; details: substrate 10 mM, 1 unit aminopeptidase, 100 mM Tris buffer pH 8.0, 37° C.; activity to leucine-paranitroanilide as 100%
Description: (§1) Enzymol., 19, 514-521(1970).
The substrate specificity of the aminopeptidase was examined as follows. […] The reaction time was regulated in accordance with the substrate so that paranitroanilide is produced in a fixed rate.

[2] = test system: aminopeptidase; test: Effect of orthophenanthroline on the enzyme activity; assay type: biochemical, Streptomyces thermonitrificans; details: 37° C., 1 minute, 0 mM = 100
Description: as §1

[3] = WHO-supplied reference, literature value; cited from earlier work

| Activity(%) of the aminopeptidase according to the substrate [1] | Compound | also measured |
| --- | --- | --- |
| 0.60% | C[C@H](N)C(=O)Nc1ccc([N+](=O)[O-])cc1 [alanine-paranitroanilide] |  |
| 0.04% | NCC(=O)Nc1ccc([N+](=O)[O-])cc1 [glycine-paranitroanilide] |  |
| 0.11% | NCC(=O)N[C@@H](Cc1ccccc1)C(=O)Nc1ccc([N+](=O)[O-])cc1 [glycine-phenylalanine-paranitroanilide] (H-Gly-Phe-pNA) |  |
| 0.80% | NCC(=O)N1CCC[C@H]1C(=O)Nc1ccc([N+](=O)[O-])cc1 [glycine-proline-paranitroanilide] (H-Gly-Pro-pNA) |  |
| 100% | CC(C)C[C@H](N)C(=O)Nc1ccc([N+](=O)[O-])cc1 [leucine-paranitroanilide] |  |
| 0.03% | NCCCC[C@H](N)C(=O)Nc1ccc([N+](=O)[O-])cc1 [lysine-paranitroanilide] |  |
| 3.60% | CSCC[C@H](N)C(=O)Nc1ccc([N+](=O)[O-])cc1 [methionine-paranitroanilide] |  |
|  | c1cnc2c(c1)ccc1cccnc12 [orthophenanthroline] | Activity(%) ([2]; orthophenanthroline 1 mM): 27%; Activity(%) ([2]; orthophenanthroline 5 mM): 2% |
|  | pituitary gland-derivedhuman growth hormone: pituitary gland-derived human growth hormone supplied by World Health Organization | potency [3]: 2.5 IU/mg |
